The text below walks through data of ChEMBL document CHEMBL1201862, “PubChem BioAssay data set” (2004).

SMILES strings stand for the structures.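 A five-concentration, 48-hour dose response in 96-well plates underlies each endpoint, interpolated linearly between surrounding concentrations. GI50: concentration for 50% inhibition of growth.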 Activity calls are given as the source filed them. Rule as the data show it: active = GI50 up to about 1.1 µM and inactive = higher.

Among the test systems are OVCAR-5; NCI-H23; HOP-92; MDA-MB-231; KM12; SNB-19; A549; M14; SK-MEL-2; OVCAR-8; SK-MEL-28; CCRF-CEM; SF-539; HCT-116; TK-10; SW-620; MCF7; RPMI-8226; A498; SR.
Holding throughout (test): inhibition of tumour cell growth, NCI panel, 48 h

Take `Cc1c(S(=O)(=O)N/C(=N\O)Nc2ccc(Cl)cc2)sc2ccc(Cl)cc12`: the GI50 in the experiment on OVCAR-5 is 18.1 µM (inactive); in the experiment with NCI-H23 it was 18 µM (inactive); with HOP-92 it was 14.6 µM (inactive); in the experiment on MDA-MB-231, 20.1 µM (inactive); in the experiment on KM12, 18.4 µM (inactive); in the experiment with SNB-19 it was 18.2 µM (inactive). Also, the GI50 in the experiment on A549 is 16.4 µM (inactive); in the experiment on M14, 16.9 µM (inactive); with SK-MEL-2, 18.7 µM (inactive); in the experiment with OVCAR-8, 17.3 µM (inactive); in the experiment on SK-MEL-28 it was 16.4 µM (inactive); in the experiment on CCRF-CEM it was 38.4 µM (inactive). Also, the GI50 in the experiment on SF-539 is 21.5 µM (inactive); in the experiment with HCT-116, 13.9 µM (inactive); with TK-10, 16.9 µM (inactive); in the experiment on SW-620, 25.1 µM (inactive).

On to `CCN(CCCN(CC)C(=O)Nc1c(C)cccc1C)C(=O)Nc1c(C)cccc1C`, for which the GI50 with OVCAR-5, with NCI-H23, with HOP-92, in the experiment with MDA-MB-231, in the experiment with KM12 and in the experiment with MCF7 was > 100 µM (inactive) in each case. Moreover, the GI50 in the experiment on SNB-19, in the experiment on RPMI-8226, in the experiment on A549, in the experiment on M14, with SK-MEL-2 and in the experiment with OVCAR-8 was > 100 µM (inactive) each time. In addition, the GI50 with SK-MEL-28, in the experiment on A498, with HCT-116, in the experiment with TK-10 and in the experiment on SW-620 was > 100 µM (inactive) in each case.

For `CN(C)c1c(C2OC(CO)C(O)C2O)c(=O)c1=O` (centres undefined), the GI50 in the experiment with OVCAR-5, in the experiment with NCI-H23, in the experiment on HOP-92, in the experiment on MDA-MB-231, with KM12 and with SNB-19 was > 100 µM (inactive) in each case. Moreover, the GI50 with RPMI-8226, with A549, in the experiment on M14, in the experiment with SK-MEL-2, with OVCAR-8 and with SK-MEL-28 was > 100 µM (inactive) throughout. For the same molecule, the GI50 in the experiment with CCRF-CEM was 82.2 µM (inactive); in the experiment on A498, > 100 µM (inactive); in the experiment with SF-539 it was < 0.01 µM (active); with SR it was > 100 µM (inactive); with HCT-116, > 100 µM (inactive); in the experiment on TK-10 it was > 100 µM (inactive). For the same molecule, in the experiment on SW-620, the GI50 is > 100 µM (inactive).

As for `CCOC(=O)c1nc[nH]c1/N=N/N(C)N`, the GI50 with OVCAR-5 is > 100 µM (inactive); with NCI-H23, > 100 µM (inactive); with MDA-MB-231, > 100 µM (inactive); with KM12, 1.87 µM (inactive); in the experiment with MCF7, 98.4 µM (inactive); in the experiment with RPMI-8226, 46.6 µM (inactive). The GI50 in the experiment with A549 was > 100 µM (inactive); with M14, > 100 µM (inactive); with SK-MEL-2, > 100 µM (inactive); with OVCAR-8 it was > 100 µM (inactive); with SK-MEL-28, > 100 µM (inactive); with A498, 40.6 µM (inactive). The GI50 with SF-539, in the experiment with HCT-116, with TK-10 and in the experiment with SW-620 was > 100 µM (inactive) in each case.

As for `COc1nc2ccc(CNc3ccc(C(=O)O)cc3)cc2nc1OC`, the GI50 in the experiment with OVCAR-5, with NCI-H23, with MDA-MB-231, in the experiment with KM12, in the experiment on MCF7 and in the experiment with SNB-19 was > 10 µM (inactive) in each case. The GI50 in the experiment with RPMI-8226, with A549, in the experiment with M14, in the experiment with SK-MEL-2, in the experiment on OVCAR-8 and in the experiment with SK-MEL-28 was > 10 µM (inactive) in each case. The GI50 with CCRF-CEM, with A498, with SF-539, in the experiment on HCT-116, in the experiment on TK-10 and in the experiment with SW-620 was > 10 µM (inactive) in each case.

Consider `[N-]=[N+]=Nc1c(Cl)c(=O)n(-c2ccccc2)c2ccccc12`, for which the GI50 is 24.3 µM (inactive) in the experiment with OVCAR-5; 19.6 µM (inactive) in the experiment on NCI-H23; 19.3 µM (inactive) in the experiment on HOP-92; 39.5 µM (inactive) in the experiment with KM12; 21.8 µM (inactive) in the experiment on MCF7; 28.9 µM (inactive) in the experiment with SNB-19. For the same molecule, the GI50 in the experiment with RPMI-8226 was 34 µM (inactive); with A549, 28.4 µM (inactive); in the experiment on M14 it was 16.6 µM (inactive); in the experiment with SK-MEL-2 it was 20.7 µM (inactive); in the experiment with SK-MEL-28, 17.6 µM (inactive); in the experiment on CCRF-CEM, 11.9 µM (inactive). The GI50 was 22.3 µM (inactive) in the experiment on SF-539; 31.4 µM (inactive) in the experiment with SR; 17.8 µM (inactive) in the experiment on HCT-116; > 10 µM (inactive) with TK-10; 14.6 µM (inactive) with SW-620.

Take `CC(C)=C=CP(=O)(O)c1ccccc1`: the GI50 with OVCAR-5, in the experiment with NCI-H23, in the experiment on HOP-92, in the experiment with KM12, with MCF7 and in the experiment on SNB-19 was > 100 µM (inactive) throughout. The GI50 in the experiment with A549, in the experiment on M14, in the experiment on SK-MEL-2, with OVCAR-8, with SK-MEL-28 and in the experiment on A498 was > 100 µM (inactive) in each case. Also, the GI50 with SF-539, with SR, in the experiment with HCT-116, in the experiment on TK-10 and in the experiment on SW-620 was > 100 µM (inactive) throughout.

Consider `O=[N+]([O-])c1ccc(/N=N/c2c(O)ccc3cc(S(=O)(=O)O)cc(S(=O)(=O)O)c23)cc1`, for which the GI50 in the experiment with OVCAR-5, in the experiment with NCI-H23, in the experiment on HOP-92, with MDA-MB-231, in the experiment on KM12 and with SNB-19 was > 100 µM (inactive) each time. The GI50 in the experiment with RPMI-8226, in the experiment on A549, in the experiment with M14, with SK-MEL-2, in the experiment with OVCAR-8 and in the experiment with SK-MEL-28 was > 100 µM (inactive) in each case. Moreover, the GI50 in the experiment with CCRF-CEM, in the experiment with A498, in the experiment with SR, in the experiment with HCT-116, with TK-10 and in the experiment on SW-620 was > 100 µM (inactive) in each case.

On to `COc1cc2c(OC)cc1CSCc1sc(C)c(c1Br)CSC2`, for which the GI50 in the experiment with OVCAR-5, in the experiment with NCI-H23, in the experiment on HOP-92, in the experiment on KM12, in the experiment with SNB-19 and in the experiment on RPMI-8226 was > 100 µM (inactive) throughout. In addition, the GI50 with A549, in the experiment on M14, in the experiment with SK-MEL-2, with OVCAR-8, with SK-MEL-28 and in the experiment on CCRF-CEM was > 100 µM (inactive) throughout. The GI50 is > 100 µM (inactive) in the experiment with A498; > 100 µM (inactive) with SF-539; 4.16 µM (inactive) in the experiment with SR; > 100 µM (inactive) with HCT-116; > 100 µM (inactive) with TK-10; > 100 µM (inactive) with SW-620.

Regarding `CC(C)C1CN1CC(O)Cn1ccnc1[N+](=O)[O-]` (centres undefined), the GI50 in the experiment on OVCAR-5, with NCI-H23, in the experiment on MDA-MB-231, with KM12, in the experiment with MCF7 and with SNB-19 was > 100 µM (inactive) each time. Further, the GI50 in the experiment on A549, with M14, with SK-MEL-2, in the experiment on OVCAR-8, in the experiment with SK-MEL-28 and in the experiment with CCRF-CEM was > 100 µM (inactive) each time. Also, the GI50 with A498, in the experiment on SF-539, in the experiment on HCT-116, with TK-10 and with SW-620 was > 100 µM (inactive) throughout.

For `Oc1cc(CF)nc(S)n1`, the GI50 with OVCAR-5, in the experiment on NCI-H23, in the experiment with HOP-92, with MDA-MB-231, in the experiment with KM12 and with SNB-19 was > 100 µM (inactive) in each case. Besides, the GI50 with A549, in the experiment on M14, in the experiment with OVCAR-8, in the experiment with SK-MEL-28, in the experiment on CCRF-CEM and in the experiment with A498 was > 100 µM (inactive) throughout. Further, the GI50 in the experiment on SR, with HCT-116, with TK-10 and in the experiment with SW-620 was > 100 µM (inactive) throughout.
